Assays:
[1] = tested on: MT4; assay: Compound was evaluated for its antiviral inhibition in MT-4 cell culture; type: functional, cell-based; details: Homo sapiens
[2] = target: Human immunodeficiency virus type 1 protease (Human immunodeficiency virus 1, UniProt Q72874); assay: Inhibition of HIV protease

Row | SMILES | IC50 [1] | Ki [2]
1 | CC(C)(C)NC(=O)[C@@H]1C[C@@H]2CCCC[C@@H]2CN1C[C@@H](O)[C@H](Cc1ccccc1)NC(=O)[C@H](CC(N)=O)NC(=O)c1ccc2ccccc2n1 | 20 nM | 
2 | CC(C)CN(C[C@@H](O)[C@H](Cc1ccccc1)NC(=O)O[C@H]1CCOC1)S(=O)(=O)c1ccc(N)cc1 | 100 nM | 
3 | O=C(N[C@H]1c2ccccc2C[C@H]1O)[C@H](Cc1ccccc1)C[C@H](O)CN1C(=O)CC[C@@H]1Cc1ccccc1 | > 50000 nM | 330 nM
4 | O=C(N[C@H]1c2ccccc2C[C@H]1O)[C@H](Cc1ccccc1)C[C@H](O)CN1C(=O)N(Cc2ccccc2)C[C@@H]1Cc1ccccc1 | 300 nM | 1.2 nM
5 | O=C(N[C@H]1c2ccccc2C[C@H]1O)[C@H](Cc1ccccc1)C[C@H](O)CN1C(=O)[C@@H](Cc2ccccc2)C[C@@H]1Cc1ccccc1 | 300 nM | 0.05 nM
6 | O=C(N[C@H]1c2ccccc2C[C@H]1O)[C@H](Cc1ccccc1)C[C@H](O)CN1C(=O)[C@H](Cc2ccccc2)C[C@@H]1Cc1ccccc1 |  | > 0.5 nM
7 | O=C(N[C@H]1c2ccccc2C[C@H]1O)[C@H](Cc1ccccc1)C[C@H](O)CN1[C@@H](Cc2ccccc2)CN(Cc2ccccc2)S1(=O)=O | 1500 nM | 0.8 nM
8 | O=C(N[C@H]1c2ccccc2C[C@H]1O)[C@H](Cc1ccccc1)C[C@@H](O)CN1C(=O)CC[C@@H]1Cc1ccccc1 | > 50000 nM | 
9 | O=C1N[C@H](Cc2ccccc2)C(=O)[C@H]1Cc1ccccc1 | 300 nM | 0.05 nM
10 | O=C(N[C@H]1c2ccccc2C[C@H]1O)[C@H](Cc1ccccc1)C[C@H](O)CN1[C@@H](Cc2ccccc2)C[C@H](Cc2ccccc2)S1(=O)=O |  | 16 nM
11 | CC(C)(C)NC(=O)[C@@H]1CN(Cc2cccnc2)CCN1C[C@@H](O)C[C@@H](Cc1ccccc1)C(=O)N[C@H]1c2ccccc2C[C@H]1O | 40 nM | 
12 | Cc1c(O)cccc1C(=O)N[C@@H](CSc1ccccc1)[C@H](O)CN1C[C@H]2CCCC[C@H]2C[C@H]1C(=O)NC(C)(C)C | 50 nM | 
13 | CC(C)c1nc(CN(C)C(=O)N[C@H](C(=O)N[C@@H](Cc2ccccc2)C[C@H](O)[C@H](Cc2ccccc2)NC(=O)OCc2cncs2)C(C)C)cs1 [RITONAVIR] | 210 nM | 
